Measured values from US10525055B2, “Opioid receptor antagonist prodrugs” (Nirsum Laboratories, Inc., priority 2017, dated 2020).

Legend:
[1] = Liver S9 fraction stability, monkey; type: in vitro ADME, cynomolgus monkey; settings: 1.0 mg/ml S9 protein, 2 μM, 37° C.
Experimental: (§1) Liver S9 fraction stability determination of the test compounds in dog, cynomolgus monkey and human is performed using HPLC-MS. Test compound (2 μM, 0.1% DMSO, 1% Methanol final concentration) was assessed for stability in a 50 μl phosphate buffer containing 1.0 mg/ml S9 protein from each of the three species and 5 mM D-saccharic acid-1, 4-lactone. Samples were incubated at 37° C. for 60 minutes and the % compound remaining was assessed.

[2] = Plasma stability assay, monkey plasma; type: in vitro ADME, cynomolgus monkey; settings: 37° C., 2 μM; for % remaining at time point in minutes, 15 min: 15 min (as headed); for % remaining at time point in minutes, 120 min: 120 min (as headed); for % remaining at time point in minutes, 480 min: 480 min (as headed); for % remaining at time point in minutes, 1440 min: 1440 min (as headed)
Experimental: (§2) Plasma stability determination of the test compounds in rat, dog, cynomolgus monkey and human plasma is performed using HPLC-MS. For rat, incubations are carried out in 96-well polypropylene plates in 5 aliquots of 70 μL each (one for each time point). […] Five time points are analyzed (0, 15, 120, 480 and 1440 min). […] All incubations are performed in duplicates. The samples are analyzed by HPLC-MS. The percentage of parent compound remaining after incubation in plasma is determined.

[3] = Liver S9 fraction stability, dog; type: in vitro ADME; settings: 1.0 mg/ml S9 protein, 2 μM, 37° C.
Experimental: as §1

[4] = Liver S9 fraction stability, human; type: in vitro ADME; settings: 1.0 mg/ml S9 protein, 2 μM, 37° C.
Experimental: as §1

[5] = Plasma stability assay, human plasma; type: in vitro ADME; settings: 37° C., 2 μM; for % remaining at time point in minutes, 15 min: 15 min (as headed); for % remaining at time point in minutes, 120 min: 120 min (as headed); for % remaining at time point in minutes, 480 min: 480 min (as headed); for % remaining at time point in minutes, 1440 min: 1440 min (as headed)
Experimental: as §2

[6] = Plasma stability assay, rat plasma; type: in vitro ADME; settings: 37° C., 10 μM
[7] = Plasma stability assay, dog plasma; type: in vitro ADME; settings: 37° C., 2 μM; for % remaining at time point in minutes, 15 min: 15 min (as headed); for % remaining at time point in minutes, 120 min: 120 min (as headed); for % remaining at time point in minutes, 480 min: 480 min (as headed); for % remaining at time point in minutes, 1440 min: 1440 min (as headed)
Experimental: as §2

[8] = Dog pharmacokinetic studies, deep intramuscular; type: in vivo, Beagle dogs; settings: dog IM, Sesame oil + 1% Benzyl Alcohol
[9] = Solubility determination in oil (cottonseed oil, sesame oil); settings: Sesame oil
Experimental: A known amount of test substance (˜40 mg) was weighed into the vial, 100 μL of oil was added and heated to 60° C. and then system was slurried to reach equilibrium. […] Extra oil was added into the vial once compound precipitated out and then the system was re-equilibrated at 1000 rpm at room temperature (25° C.). Final concentration was determined by HPLC method as described below in Table 6a and 6b.

[10] = Rat pharmacokinetic studies, intramuscular; type: in vivo, male Sprague Dawley Rats; settings: rat IM, Sesame oil + 1% Benzyl Alcohol
Experimental: The purpose of this study is to determine the pharmacokinetics of test compounds in plasma, following intramuscular administration to male Sprague Dawley Rats (n=3, unless otherwise specified).
The dose formulation of 400 mg base equivalents/ml in sesame oil+1% benzyl alcohol (unless otherwise specified) was administered by intramuscular injection. The dose volume was determined by the animals' body weight determined on the morning of dosing day.
Each collected blood sample was centrifuged for 4 minutes at 4° C. and 10000 rpm for plasma collection. Plasma was collected and transferred into a pre-labeled PP tube in dry ice at each time point and precipitated immediately using ACN at a ratio of 1:4 (plasma:ACN). Centrifuged again (10 minutes, 12000 rpm) and obtain the supernatant.
After terminal collection, all supernatant was stored at approximately −80° C. until bioanalysis.
LC-MS/MS methods for the quantitative determination of test compound in biological matrix were developed. […] The sample analysis was performed concurrently with a set of calibration standards and two sets of QC samples using the LC-MS/MS method.
Plasma concentration versus time data was analyzed by non-compartmental approaches using the Phoenix WinNonlin 6.3 software program. Cmax, Tmax, T1/2, AUC(0-t), AUC(0-inf), MRT(0-t), MRT(0-inf) and graphs of plasma concentration versus time profile were prepared.

Compound	Liver S9 Fraction Stability % remaining at 60 minutes, Monkey [1] [%]	% remaining at time point in minutes, 0 min [2] [%]	% remaining at time point in minutes, 15 min [2] [%]	% remaining at time point in minutes, 120 min [2] [%]	% remaining at time point in minutes, 480 min [2] [%]	% remaining at time point in minutes, 1440 min [2] [%]	Liver S9 Fraction Stability % remaining at 60 minutes, Dog [3] [%]	Liver S9 Fraction Stability % remaining at 60 minutes, Human [4] [%]	% remaining at time point in minutes, 0 min [5] [%]	% remaining at time point in minutes, 15 min [5] [%]	% remaining at time point in minutes, 120 min [5] [%]	% remaining at time point in minutes, 480 min [5] [%]	% remaining at time point in minutes, 1440 min [5] [%]	% remaining at time point in minutes, 0 min [6] [%]	% remaining at time point in minutes, 15 min [6] [%]	% remaining at time point in minutes, 0 min [7] [%]	% remaining at time point in minutes, 15 min [7] [%]	% remaining at time point in minutes, 120 min [7] [%]	% remaining at time point in minutes, 480 min [7] [%]	% remaining at time point in minutes, 1440 min [7] [%]	further results
CCCCCCCCCCCC(=O)OCN1C(=O)CCc2ccc(OCCCCN3CCN(c4cccc(Cl)c4Cl)CC3)cc21 [Aripiprazole lauroxil, reference compound]	56.6	100	95.2	94.5	75.5	83.2	66.1	47.8	100	99.7	80	73.2	75.5	100	84	100	103	81.3	78.6	74.3	% remaining at time point in minutes, 120 min [6]: 85.5%; % remaining at time point in minutes, 480 min [6]: 76.4%; % remaining at time point in minutes, 1440 min [6]: 46%
C=C1CC[C@@]2(O)C3Cc4ccc(OC(=O)CCCCCCC/C=C/CCCCCCCC)c5c4[C@@]2(CCN3CC2CC2)[C@H]1O5 [Compound 15, (4aS,7aS,12bS)-3-(cyclopropylmethyl)-4a-hydroxy-7-methylene-2,3,4,4a,5,6,7,7a-octahydro-1H-4,12-methanobenzofuro[3,2-e]isoquinolin-9-yl (E)-octadec-9-enoate]	76.7	100	74.5	72.7	80.6	76.5	80.9	59.8	100	83.3	82.5	107.1	109.0	100	72	100	82.5	80.6	90.1	86.1	AUC0-inf (ng · h/mL) prodrug ([8]; 30 mg/kg): 521 ng·h/mL; Half-life t1/2 (hour) prodrug ([8]; 30 mg/kg): 134 h; AUC0-inf (ng · h/mL) prodrug ([8]; 48 mg/kg): 1144 ng·h/mL; Half-life t1/2 (hour) prodrug ([8]; 48 mg/kg): 518 h; AUC0-inf (ng · h/mL) prodrug ([8]; 96 mg/kg): 1353 ng·h/mL; Half-life t1/2 (hour) prodrug ([8]; 96 mg/kg): 162 h; Approximate Solubility (mg/mL) in Excipient: Sesame oil ([9]; heating temp. 40 °C, obs. temp. 40 °C): <52 mg/mL; Approximate Solubility (mg/mL) in Excipient: Sesame oil ([9]; heating temp. 60 °C, obs. temp. 25 °C): >396.5 mg/mL; AUC0-inf (ng · h/mL) prodrug ([10]; 80 mg/kg): 679 ng·h/mL; AUC0-inf (ng · h/mL) prodrug ([10]; 123 mg/kg): 2574 ng·h/mL; AUC0-inf (ng · h/mL) prodrug ([10]; 165 mg/kg): 2789 ng·h/mL; Half-life t1/2 (hour) prodrug ([10]; 165 mg/kg): 500 h; % remaining at time point in minutes, 120 min [6]: 69.3%; % remaining at time point in minutes, 480 min [6]: 52%; % remaining at time point in minutes, 1440 min [6]: 35%
CCCCCCCCCCCCCCCC(=O)OC1CCCn2c1nc(C)c(CCN1CCC(c3noc4cc(F)ccc34)CC1)c2=O (stereo not shown) [Paliperidone palmitate, reference compound]	57.4	100	92	89.5	98.4	92.5	56.4	47.8	100	103.7	97.6	109.1	104.1			100	91.2	88.4	95.9	93.1	
